Measured values taken from US11039618B2, “Metam salts and polysulfide soil treatment” (Tessenderlo Kerley, Inc, priority 2016, dated 2021).

Experiments:
[1] = system: Pythium; experiment: Example 6: Pythium population in treated farm soil samples; type: cell-based; settings: soil from another location; average over rates: LSS 45 and 90 gal/acre; metam sodium 20 and 40 gal/acre; combination 20 and 40 gal metam with 45 gal LSS; untreated 150
Experimental: Soil from a farm located in Washington state was treated with various solutions, and subsequently the population of Verticillium in treated samples were determined. Untreated samples contained 31 CFU per gram of dry soil. Soil treated with 90 gallons per acre liquid lime sulfur (276 pounds/acre or 309 kg/ha of calcium polysulfide) had less than 2 CFU per gram of dry soil. […] Samples treated with 170 pounds of metam sodium per acre and with a mixture of 138 pounds calcium polysulfide and 170 pounds of metam sodium per acre had about 70 to 80 CFU per gram of dry soil. […] The reason is not understood, and may reflect test protocols.
Clearly the test protocol and/or sample variability were over-riding factors. In tests on soil from another location, untreated soil had 150 CFU Pythium per gram of dry soil.

[2] = system: Verticillium dahliae; experiment: Plate tests: Verticillium counts in treated greenhouse soil; type: cell-based; settings: 20 gal./acre metam
Experimental: Seven days after treatment, one soil sample per replicate was taken. V. dahliae control efficacy was assessed according to the methods below. Soil mixture was dried two weeks under greenhouse conditions. The quantity of V. dahliae in the soil was/will be assessed by dry soil plating on semi-selective medium. Dry soil samples were crushed and sieved through a #20 mesh. A small portion of each sample was incubated on six NP-10 semi-selective plates with a 6-stage Impactor (Anderson Samplers Inc., Atlanta, Ga.), using stages 2 and 3. Semi-selective NP-10 medium was prepared according to Kabir et al. (2004) and incubated at 24° C. in the dark for four weeks after spreading 0.5 g of soil. After incubation, the remaining soil was be gently washed off the plates and the number of V. dahliae microsclerotia colonies were counted on each plate under a microscope. The number of microsclerotia colonies equals the quantity of V. dahliae in soil and were extrapolated to 1 g of soil.
Plate tests were performed on selected samples to determine the Verticillium counts in treated soil through Aug. 17, 2017. Plate tests were performed as described previously. The untreated control comparative sample 1 averaged 32.5 ms per gram of soil. For reasons not known, the water check comparative sample 2, with no active ingredients added, contained only 11.5 ms per gram of soil. […]

[3] = system: V. dahliae; experiment: Field test near Moses Lake, Wash.: V. dahliae colonies in soil after shank treatment; parameters: species or system Verticillium dahliae; settings: average of three sample sites, metam sodium 191 pounds/acre, calcium polysulfide 276 pounds/acre
Experimental: A field test was performed in small plots in a grower's location in near Moses Lake, Wash. using commercial equipment, shanking the product 8-9 inches into the ground, in February 2016. A few treated areas were sampled a few months after treatment. This field is believed to be low in pest pressure. […] The mixture is compatible as a ground application, including using standard tanks, hoses, nozzles, and shanks. It is believed the product will also be stable when added to water to form a dilute product, due to the sodium or potassium hydroxide in metam. Therefore, alkali sulfide salts need not be added.
Location 1 was treated with 45 gallons per acre of Sectagon®, the metam sodium solution, equivalent to 191 pounds metam sodium per acre. This is considered a standard treatment protocol. Section 2 was treated with only liquid lime sulfur, at 90 gallons per acre (276 pounds calcium polysulfide/acre). Section 3 was treated with 30 gallons per acre Sectagon® and 30 gallons per acre liquid lime sulfur (92 pounds calcium polysulfide and 127 pounds metam sodium per acre). The treatment chemicals were obtained from Tessenderlo Kerley. A sufficient time following the treatments, V. dahliae concentrations and black dot concentrations were determined at 4 inches depth and at 8 inches depth at three random sample sites in each treated plot. No controls were run, and the variability in samples were high. […]

[4] = system: Verticillium; experiment: Example 6: Verticillium population in treated farm soil samples; type: cell-based; settings: soil from another location

CNC(=S)S [Metam, sodium methyldithiocarbamate]
average CFU Pythium per gram of dry soil [1]: 60 CFU per gram of dry soil
Verticillium dahliae population [2]: 3 ms per gram of soil
averaged colonies of V. dahlia per gram of soil at four inches ([3]; mixture 92 + 127 pounds/acre): 30 colonies per gram of soil
averaged colonies of V. dahlia per gram of soil at eight inches ([3]; mixture 92 + 127 pounds/acre (8 inch samples called suspect)): 3 colonies per gram of soil
suppression of the Verticillium [4]: only modest suppression
average Verticillium CFU per gram of dry soil ([4]; average over rates: LSS 45 and 90 gal/acre, metam sodium 20 and 40 gal/acre, mixture 20 and 40 gal metam with 45 gal LSS, untreated 41): 30 CFU per gram of dry soil
